Experimental data published in patent US6858627B2, “Glucocorticoid mimetics, methods of making them, pharmaceutical compositions, and uses thereof” (Boehringer Ingelheim Pharmaceuticals, Inc., priority 2002, dated 2005).

Experiments:
[1] = test system: glucocorticoid receptor; assay: Glucocorticoid receptor cell assays, antagonist activity; assay type: cell-based; settings: assay not given
Procedure: B. Glucocorticoid Receptor Cell Assays
Evaluation of agonist or antagonist activity of compounds binding to the glucocorticoid receptor may be determined by any of the assays.
3. Modulation of Tyrosine Aminotransferase (TAT) Induction in Rat Hepatoma Cells
Testing of compounds for agonist or antagonist activity in induction of tyrosine aminotransferase (TAT) in rat hepatoma cells.
H4-II-E-C3 cells were incubated overnight in 96 well plates (20,000 cells/100 μL/well) in MEM medium containing 10% heat inactivated FBS and 1% nonessential amino acids. On the next day, cells were stimulated with the indicated concentrations of dexamethasone or test compound (dissolved in DMSO, final DMSO concentration 0.2%) for 18 hours. Control cells were treated with 0.2% DMSO. After 18 hours, the cells were lysed in a buffer containing 0.1% Triton X-100 and the TAT activity was measured in a photometric assay using tyrosine and alpha-ketoglutarate as substrates. […]
Cells were cultured overnight in DMEM medium without phenol red, supplemented with 3% CCS (charcoal treated calf serum) and then transferred to 96 well plates (15,000 cells/100 μL/well). […] After 18 hours, the cells were lysed with cell lysis reagent (Promega, Cat. No. E1531), luciferase assay reagent (Promega, Cat. No. E1501) was added and the glow luminescence was measured using a luminometer (BMG, Offenburg). […]

[2] = test system: glucocorticoid receptor; assay: Glucocorticoid receptor function, one or more of the above assays (binding and cell assays); assay type: cell-based; settings: in one or more of the above assays; assay not given
Procedure: Compounds of the invention were evaluated for binding to the steroid receptor by a fluorescence polarization competitive binding assay. Detailed descriptions for preparation of recombinant glucocorticoid receptor (GR) complex used in the assay is described in U.S. Patent Application Publication No. 2003/0,017,503, filed May 20, 2002, and the corresponding U.S. provisional application No. 60/291,877, filed May 18, 2001, each of which is incorporated herein by reference in its entirety. Preparation of the tetramethyl rhodamine (TAMRA)-labeled dexamethasone probe was accomplished using a standard literature procedure (M. Pons et al., J. Steroid Biochem., 1985, 22, pp. 267-273).
This assay uses fluorescence polarization (FP) to quantitate the ability of test compounds to compete with tetramethyl rhodamine (TAMRA)-labeled dexamethasone for binding to a human glucocorticoid receptor (GR) complex prepared from an insect expression system. […]
The binding reactions were incubated for 1 hour at room temperature and then read for fluorescence polarization in the LJL Analyst set to 550 nm excitation and 580 nm emission, with the Rhodamine 561 dichroic mirror installed. IC50 values were determined by iterative non-linear curve fitting of the FP signal data to a 4-parameter logistic equation. […]

SMILES	activity as antagonists in cellular assays [1]	activity as an agonist of the glucocorticoid receptor function [2]
C=CCOC(C)C1=CC(C)(C)Nc2ccc(-c3ccccc3OC)cc21 (stereo not drawn) [4-(1-Allyloxyethyl)-6-(2-methoxyphenyl)-2,2-dimethyl-1,2-dihydroquinoline]	potent activity as antagonists	–
C=CCSCC1=CC(C)(C)Nc2ccc(-c3ccccc3OC)cc21 [4-Allylsulfanylmethyl-6-(2-methoxyphenyl)-2,2-dimethyl-1,2-dihydroquinoline]	potent activity as antagonists	–
C=CCOC(C)C1=CC(C)(C)Nc2ccc(-c3cc(F)ccc3OC)cc21 (stereo not drawn) [4-(1-Allyloxyethyl)-6-(5-fluoro-2-methoxyphenyl)-2,2-dimethyl-1,2-dihydroquinoline]	–	activity as an agonist
